Where “and” joins values, the source holds several entries; their conditions need not be identical. Equal values may be shown once.
How the values were obtained:
[1] = pION μSOL kinetic aqueous solubility; type: physicochemical; conditions: in words; pH7.4
[2] = target: T1, OE19 (3A1) (Homo sapiens, UniProt P30838); assay: Cellular ALDEFLUOR assay in OE19 cells (preferential ALDH3A1 expression); conditions: for Cell_Efficacy: Table S5, OE19 cells; for Cell_CC-v2: Table S5, cellular curve class; for IC50: cellular IC50 (Aldefluor), OE19 cells
T1 sequence (P30838 1-453): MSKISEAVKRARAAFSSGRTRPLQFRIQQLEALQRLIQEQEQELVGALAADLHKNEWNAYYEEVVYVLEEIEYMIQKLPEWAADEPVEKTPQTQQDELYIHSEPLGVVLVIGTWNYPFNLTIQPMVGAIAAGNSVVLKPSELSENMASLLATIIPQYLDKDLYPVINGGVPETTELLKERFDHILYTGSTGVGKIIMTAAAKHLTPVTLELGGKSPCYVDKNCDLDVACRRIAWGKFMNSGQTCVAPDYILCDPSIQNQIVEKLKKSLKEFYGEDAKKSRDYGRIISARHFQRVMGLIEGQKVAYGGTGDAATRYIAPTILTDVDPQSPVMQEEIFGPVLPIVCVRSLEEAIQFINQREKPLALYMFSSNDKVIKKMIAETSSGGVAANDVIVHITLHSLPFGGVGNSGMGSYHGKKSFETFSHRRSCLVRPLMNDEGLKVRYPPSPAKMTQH

[3] = Metabolic stability in rat liver microsome fractions; type: in vitro ADME; conditions: in words
[4] = target: T2, Human ALDH3A1 (Homo sapiens, UniProt P30838); assay: ALDH3A1 biochemical assay (benzaldehyde/NADP+, diaphorase-resazurin readout, 1,536-well); conditions: for IC50Ratio: 20X[SUB] vs 1X[SUB] benzaldehyde; for Efficacy: Table S5, biochemical; for CC-v2: Table S5, biochemical curve class; for LLE: Table S7, pAC50 − cLogP; for inhibition mechanism (benzaldehyde substrate shift): retested at 4,000 μM benzaldehyde
T2 sequence (P30838 1-453): T1 sequence (P30838 1-453)

[5] = 20X[SUB] IC50 [µM], benzaldehyde 4,000 µM (~20× Km), NADP+ 1,000 µM

| kinetic aqueous solubility [1] | AC50 [2] [nM] | Cell_Efficacy [2] | Cell_CC-v2 [2] | IC50 [2] | microsomal stability [3] | AC50 [4] [nM] | IC50 [4, 5] [µM] | IC50Ratio [4] | IC50 ([4]; ALDH3A1 biochemical IC50) | Efficacy [4] | CC-v2 [4] | LLE [4] | Structure (SMILES) | inhibition mechanism (benzaldehyde substrate shift) [4] |
| --- | --- | --- | --- | --- | --- | --- | --- | --- | --- | --- | --- | --- | --- | --- |
| limited kinetic aqueous solubility | 3.8 | -94.02 | -1.1 | 4 nM and 3.84 nM and ~4 nM | only moderate microsomal stability | 31.6 | 1 | 32 | 0.0316 µM and 0.032 µM and ~0.032 µM | -99.22 | -1.1 | 1.65 | Cc1nc(-c2cccc(CNC(=O)c3csc(N4CCN(c5cccc(C(F)(F)F)c5)CC4)n3)c2)cs1 [Compound 14] | consistent with substrate-competitive inhibition |
| limited kinetic aqueous solubility | 13.6 | -65.41 | -1.2 | 13.6 nM and 14 nM and ~14 nM | – | 1.1 | 0.0316 | 28 | 0.001 µM | -107.26 | -1.1 | 3.663 | O=C(NCc1cccc(C2CC2)c1)c1csc(N2CCN(c3cccc(C(F)(F)F)c3)CC2)n1 [Compound 13] | consistent with substrate-competitive inhibition |

Reference: article PMC13266984 (Journal of medicinal chemistry, 2026)
